Values joined by “and” are separate entries in the source; they are usually repeats but may differ in a detail not shown here. Equal values may be shown once.
Test system: Fecal coliforms
Type: cell-based

CC(=O)OO [A, peroxyacetic acid]
Category: >1000 and <1000

Source: patent US11167162B2 (priority 2017, dated 2021)
